Laboratory results taken from paper PMC11943675, “Studies of Piper auritum Kuntz’s Mutagenic and Antimutagenic Properties Using the Ames Test” (Metabolites, 2025).
Several values for one entry are separate records, joined by “and”; a condition that tells them apart may be missing. Identical values can stand only once. Like-named read-outs stand apart in the source and are kept apart here.

Columns and labels:
[1] = system: S. typhimurium TA100; experiment: Ames test (Salmonella/microsome mutagenicity assay), strain TA100; format: cell-based, Salmonella typhimurium
Protocol: (§1) The study was carried out according to the indications of Maron and Ames, as well as with the recommendations expressed by the OCDE with respect to this assay. The Salmonella typhimurium strains used were TA98, TA100, TA102, TA1535, and TA1537.
(§2) In this case, the concentrations used were 10, 50, 100, 500, and 1000 µg/plate. Both studies were performed without and with the inclusion of the S9 fraction. In the last case, the S9 fraction was mixed with 5 mM glucose-6 phosphate, 4 mM NADPH, 8 mM MgCl2, and phosphate buffer at pH 7.4. The reaction mixture with or without S9 was placed in Petri dishes containing minimum agar plus glucose and Vogel–Bonner salts and left at 37 °C for 48 h. Finally, the number of revertant colonies (His^+) in each treatment was counted. Importantly, we used different mutagens as positive controls depending on the strain.
(§3) The toxicity of the tested agents was assessed by observing background bacterial growth on minimal agar plates due to traces of histidine in the medium.

[2] = system: S. typhimurium TA98; experiment: Ames test (Salmonella/microsome mutagenicity assay), strain TA98; format: cell-based, Salmonella typhimurium
Protocol: as §1, §2, §3

[3] = system: S. typhimurium TA1535; format: cell-based, Salmonella typhimurium; details: positive mutagen
Protocol: as §1, §2, §3

[4] = system: S. typhimurium TA102; experiment: Ames test (Salmonella/microsome mutagenicity assay), strain TA102; format: cell-based, Salmonella typhimurium
Protocol: as §1, §2, §3

[5] = system: S. typhimurium TA1537; experiment: Ames test (Salmonella/microsome mutagenicity assay), strain TA1537; format: cell-based, Salmonella typhimurium
Protocol: as §1, §2, §3

[6] = system: mouse bone marrow; details: cited from earlier work
[7] = system: strain TA98 of S. typhimurium; details: cited from earlier work
[8] = system: S. typhimurium TA98; details: strain TA98; cited from earlier work
[9] = system: Salmonella typhimurium strains TA98, TA100, TA102, TA1535, and TA1537; experiment: Ames test, overall verdict over the five strains; format: cell-based
Protocol: as §1, §2, §3

[10] = system: rat hepatocytes; details: cited from earlier work
[11] = molecular target: T1, human CYP1A1 (Homo sapiens, UniProt P04798); details: nonlinear regression and Lineweaver–Burk plots
T1 sequence (P04798 1-512): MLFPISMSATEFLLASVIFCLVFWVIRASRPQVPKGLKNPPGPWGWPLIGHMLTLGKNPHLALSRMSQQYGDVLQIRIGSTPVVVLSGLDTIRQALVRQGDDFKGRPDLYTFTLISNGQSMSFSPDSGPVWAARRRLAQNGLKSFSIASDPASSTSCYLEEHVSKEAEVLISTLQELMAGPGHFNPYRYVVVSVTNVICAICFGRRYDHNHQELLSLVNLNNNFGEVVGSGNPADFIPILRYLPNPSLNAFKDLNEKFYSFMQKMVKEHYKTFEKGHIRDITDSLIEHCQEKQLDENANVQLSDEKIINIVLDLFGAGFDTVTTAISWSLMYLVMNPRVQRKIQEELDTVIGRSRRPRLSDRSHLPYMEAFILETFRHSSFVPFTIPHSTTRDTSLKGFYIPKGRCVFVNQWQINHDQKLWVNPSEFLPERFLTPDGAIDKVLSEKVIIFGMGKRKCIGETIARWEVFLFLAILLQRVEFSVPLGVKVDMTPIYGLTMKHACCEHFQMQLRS
Protocol: (§4) The protein content was estimated via the Bradford assay.
(§5) To determine the type of inhibition, an incubation volume of 200 μL containing human CYP1A1 bacterial membranes (80 μg) and 0.5 mM NADPH in buffer pH 7.6 (50 mM Tris–HCl and 25 mM MgCl2) was used.

[12] = system: Salmonella typhimurium; details: cited from earlier work
[13] = molecular target: T1, human CYP1A1; experiment: biochemical
Protocol: as §4, §5

Structure (SMILES): O=[N+]([O-])c1ccc2c(c1)Cc1ccccc1-2 [2-nitrofluorene, reference compound]
- His^+ Revertants ([1]; positive mutagen, TA100 (−S9), 5 µg): 1909 ± 428 ^1
- His^+ Revertants ([2]; positive mutagen, TA98 (−S9), 5 µg): 2419 ± 169 ^1 and 2070 ± 44 ^1

Structure (SMILES): Nc1ccc2cc3ccccc3cc2c1 [aminoanthracene, 2-aminoanthracene, reference compound]
- His^+ Revertants ([3]; TA1535 (+S9), 2 µg): 371 ± 20 ^4
- His^+ Revertants ([4]; positive mutagen, TA102 (+S9), 5 µg): 2080 ± 27 ^7
- His^+ Revertants ([5]; positive mutagen, TA1537 (+S9), 2 µg): 120 ± 12 ^4

Structure (SMILES): CC1=NN(c2ccc([N+](=O)[O-])cc2)C(=O)C1[N+](=O)[O-] (stereo not drawn) [picrolonic acid, reference compound]
- His^+ Revertants ([5]; positive mutagen, TA1537 (−S9), 100 µg): 63 ± 2 ^5

Structure (SMILES): C=CCc1ccc2c(c1)OCO2 [safrole, 5-(2-propenyl)-1,3-benzodioxone]
- mutagenicity, mouse bone marrow micronuclei assay [6]: negative
- antimutagenic potential against heterocyclic aromatic amines [7]: strong antimutagenic potential
- mutagenicity [8]: no mutagenicity
- His^+ Revertants ([1]; TA100 (+S9), 10 μg/plate): 97 ± 18
- His^+ Revertants ([1]; TA100 (+S9), 50 μg/plate): 108 ± 18
- His^+ Revertants ([1]; TA100 (+S9), 100 μg/plate): 105 ± 9
- His^+ Revertants ([1]; TA100 (+S9), 500 μg/plate): 108 ± 9
- His^+ Revertants ([1]; TA100 (+S9), 1000 μg/plate): 102 ± 9
- His^+ Revertants ([1]; TA100 (−S9), 10 μg/plate): 110 ± 16
- His^+ Revertants ([1]; TA100 (−S9), 50 μg/plate): 120 ± 17
- His^+ Revertants ([1]; TA100 (−S9), 100 μg/plate): 107 ± 10
- His^+ Revertants ([1]; TA100 (−S9), 500 μg/plate): 100 ± 17
- His^+ Revertants ([1]; TA100 (−S9), 1000 μg/plate): 112 ± 6
- toxicity (background bacterial growth) ([9]; tested concentrations): absence of toxicity
- mutagenic potential ([9]; with and without S9): absence of a mutagenic effect
- His^+ Revertants ([4]; TA102 (+S9), 10 μg/plate): 573 ± 6
- His^+ Revertants ([4]; TA102 (+S9), 50 μg/plate): 558 ± 14
- His^+ Revertants ([4]; TA102 (+S9), 100 μg/plate): 520 ± 10
- His^+ Revertants ([4]; TA102 (+S9), 500 μg/plate): 477 ± 17
- His^+ Revertants ([4]; TA102 (+S9), 1000 μg/plate): 504 ± 12
- His^+ Revertants ([4]; TA102 (−S9), 10 μg/plate): 502 ± 4
- His^+ Revertants ([4]; TA102 (−S9), 50 μg/plate): 489 ± 19
- His^+ Revertants ([4]; TA102 (−S9), 100 μg/plate): 484 ± 13
- His^+ Revertants ([4]; TA102 (−S9), 500 μg/plate): 451 ± 18
- His^+ Revertants ([4]; TA102 (−S9), 1000 μg/plate): 512 ± 40
- His^+ Revertants ([2]; TA98 (+S9), 10 μg/plate): 20 ± 2
- His^+ Revertants ([2]; TA98 (+S9), 50 μg/plate): 34 ± 8
- His^+ Revertants ([2]; TA98 (+S9), 100 μg/plate): 38 ± 9
- His^+ Revertants ([2]; TA98 (+S9), 500 μg/plate): 26 ± 9
- His^+ Revertants ([2]; TA98 (+S9), 1000 μg/plate): 36 ± 7
- His^+ Revertants ([2]; TA98 (−S9), 10 μg/plate): 19 ± 3
- His^+ Revertants ([2]; TA98 (−S9), 50 μg/plate): 22 ± 7
- His^+ Revertants ([2]; TA98 (−S9), 100 μg/plate): 27 ± 4
- His^+ Revertants ([2]; TA98 (−S9), 500 μg/plate): 18 ± 3
- His^+ Revertants ([2]; TA98 (−S9), 1000 μg/plate): 22 ± 9
- DNA adducts and chromosomal aberrations [10]: induction of DNA adducts and chromosomal aberrations
- gene mutations [10]: no gene mutations
- type of inhibition [11]: competitive inhibition
- mutagenicity, Ames test [12]: negative
- His^+ Revertants ([5]; TA1537 (+S9), 10 μg/plate): 12 ± 3
- His^+ Revertants ([5]; TA1537 (+S9), 50 μg/plate): 10 ± 3
- His^+ Revertants ([5]; TA1537 (+S9), 100 μg/plate): 10 ± 1
- His^+ Revertants ([5]; TA1537 (+S9), 500 μg/plate): 11 ± 4
- His^+ Revertants ([5]; TA1537 (+S9), 1000 μg/plate): 9 ± 3
- His^+ Revertants ([5]; TA1537 (−S9), 10 μg/plate): 10 ± 3
- His^+ Revertants ([5]; TA1537 (−S9), 50 μg/plate): 14 ± 4
- His^+ Revertants ([5]; TA1537 (−S9), 100 μg/plate): 10 ± 1
- His^+ Revertants ([5]; TA1537 (−S9), 500 μg/plate): 12 ± 3
- His^+ Revertants ([5]; TA1537 (−S9), 1000 μg/plate): 11 ± 4
- Ki [13]: 380 nM

Structure (SMILES): [N-]=[N+]=[N-].[Na+] [sodium azide]
- His^+ Revertants ([3]; TA1535 (−S9), 1 µg): 481 ± 28 ^3
